Drawing on ChEMBL document CHEMBL1134194, “Anti-HIV activity of aromatic and heterocyclic thiazolyl thiourea compounds” (Bioorg Med Chem Lett, 2001), this text covers IC50, CC50 and Selectivity index for 16 compounds.

Assay [1] has as its system Human immunodeficiency virus 1. Kind of assay: Tested for the ability to inhibit the replication of HIV-1 strain HTLV IIIB in human peripheral blood mononuclear cells (PBMC). It counts as functional, organism-based.
Assay [2] addresses Human immunodeficiency virus type 1 reverse transcriptase (Human immunodeficiency virus 1, UniProt Q72547, K103N/Y181C). As to the kind of experiment: Inhibitory activity against non-nucleoside reverse transcriptase inhibitors (NNRTI) -resistant HIV-1 strain A17 variant with Y181C plus K103N mutations in RT (reverse transcriptase).
Assay [3] can be described thus: Cytotoxic concentration was evaluated against human peripheral blood mononuclear cells (PBMC). It counts as functional.
In assay [4] the test system is Human immunodeficiency virus 1. As to the kind of experiment: Selectivity index was determined. It counts as functional.

Structures are written as SMILES. Counter-ions that a name gives are not always drawn.

The term IC50 denotes the midpoint of a concentration-inhibition curve. In assay [1], `S=C(NCCN1CCCCC1)Nc1nccs1` displayed an IC50 above 100 µM.

Usually CC50 stands for the concentration that lowers cell viability or growth by half. Low values mean greater toxicity to the cells, high ones lower toxicity to the cells. Take `S=C(NCCc1cccs1)Nc1ccc(Br)cn1`: in assay [2], the IC50 stood at 3.3 µM. In assay [3], the CC50 is above 100 µM.

`S=C(NCCc1cccs1)Nc1nccs1` displayed an IC50 in assay [1] below 0.001 µM. The same compound displayed a Selectivity index in assay [4] of 71000. The CC50 in assay [3] was determined as 71 µM.

In assay [1], `CC(C)Nc1cccnc1N1CCN(C(=O)c2cc3cc(NS(C)(=O)=O)ccc3[nH]2)CC1` [DELAVIRDINE MESYLATE] registered an IC50 of 0.009 µM.

In the case of `Cc1ccnc2c1NC(=O)c1cccnc1N2C1CC1` [NEVIRAPINE], in assay [1], half-maximal inhibition (IC50) was put at 0.034 µM.

Consider `S=C(NCCc1c[nH]c2ccccc12)Nc1nccs1`, for which the IC50 is 3.7 µM in assay [2] and below 0.001 µM in assay [1]. In addition, the Selectivity index in assay [4] amounted to 28000. Further, in assay [3], the midpoint of cytotoxicity, the CC50, lay at 28 µM.

Compound `S=C(NCCc1ccccn1)Nc1nccs1` had an IC50 in assay [1] of 1 µM. This compound registered a Selectivity index in assay [4] of 100. Also, the CC50 in assay [3] is 100 µM.

`S=C(NCCC1=CCCCC1)Nc1nccs1`: the IC50 in assay [2] was above 100 µM.

`S=C(NCCOc1ccccc1)Nc1nccs1`: the IC50 in assay [2] was above 100 µM; in assay [1], below 0.001 µM. Besides, the Selectivity index in assay [4] was above 100000. Also, the CC50 in assay [3] was above 100 µM.

`Oc1ccc(CCNC(=S)Nc2ccc(Br)cn2)cc1`: the IC50 in assay [2] is above 100 µM; in assay [1], 0.007 µM. The compound also gave a CC50 in assay [3] above 100 µM.

As to `Cc1ccc(CC/N=C(\S)Nc2nccs2)cc1`, the IC50 was above 100 µM in assay [2] and 0.07 µM in assay [1]. In assay [4], this compound came in with a Selectivity index of 1429. In assay [3], the CC50 was above 100 µM.

Turning to `S=C(NCc1ccco1)Nc1nccs1`, the IC50 was 0.6 µM in assay [2] and below 0.001 µM in assay [1]. In addition, the Selectivity index in assay [4] is recorded as above 100000. Besides, the CC50 in assay [3] was above 100 µM.

For `S=C(NCC12CC3CC(CC(C3)C1)C2)Nc1nccs1`, the concentration for half-maximal inhibition (IC50) in assay [2] was 1.3 µM; in assay [1], below 0.001 µM. The Selectivity index in assay [4] was 40000. In addition, in assay [3], it took 40 µM to reach half-maximal cytotoxicity (CC50).

In turn, `Oc1ccc(CC/N=C(\S)Nc2nccs2)cc1` had an IC50 in assay [1] above 100 µM.

For the compound `S=C(NCCCn1ccnc1)Nc1nccs1`, the IC50 in assay [2] was above 100 µM; in assay [1], below 0.001 µM. This compound returned a Selectivity index in assay [4] of 35000. This compound returned a CC50 in assay [3] of 35 µM.

`CCC(NC(=S)Nc1nccs1)c1ccccc1` (stereo unspecified): the IC50 in assay [2] is 1.5 µM.
